According to patent US20140087003A1, “METHOD FOR TREATING VENOMOUS BITES AND STINGS” (priority 2012, published 2014):

Assay: pH of the solution
Type: physicochemical

SMILES	pH of strong basic solutions used as high pH controls
[K+].[OH-] [potassium hydroxide]	14
[Na+].[OH-] [sodium hydroxide]	14
